Laboratory results as given in patent US3989730A, “Bone-seeking technetium-99m complex” (priority 1973, dated 1976).
Like-named read-outs stand apart in the source and are kept apart here.

What was measured:
[1] = Simultaneous distribution of 99mTc-EHDP and 85Sr in rabbits at 1-24 hours after intravenous injection; format: in vivo, adult New Zealand albino rabbits; conditions: for Blood, % Dose in Whole Organ: blood as 7 % of body weight; for Bone(Avg), % dose in whole organ: bone as 10 % of body weight; for Marrow, % Dose in Whole Organ: marrow as 2.2 % of body weight
Procedure: Adult New Zealand albino rabbits having an average weight of 3.8 kg were utilized. Strontium-85 was employed as a standard for comparison. […] Each dosage is contained in a volume of 1 ml.
Multiple samples were counted from the tibia, femur, spine and pelvic bones; the total activity in the skeleton was estimated by assuming the whole skeleton consisted of equal proportions by weight of tibia, spine, femur and pelvis and that the skeletal mass was 10% of the body weight. […] The whole liver and both kidneys were weighed and multiple samples from each were counted to measure the total activity in each organ.

[2] = system: callous of three week-old fractures of tibia; assay: Localization in callous of three week-old tibial fractures (rabbits), compared with strontium-85; format: in vivo, albino rabbits
Procedure: Adult New Zealand albino rabbits having an average weight of 3.8 kg were utilized. Strontium-85 was employed as a standard for comparison. In a typical experiment 20-250 μCi (i.e., containing approximately 1 mg/kg as the free acid of body weight) of 99mTc EHDP were injected intravenously into the rabbits through the marginal ear vein and compared with 10-20 μ Ci 85 Sr chloride administered simutaneously. Each dosage is contained in a volume of 1 ml.
The animals were sacrificed serially from 1 to 24 hours after injection and the activities in major organs were determined by counting multiple samples from each organ in a scintillation well counter (the technetium-99m counts were corrected for the Compton contributions from the strontium-85 activity in the technetium-99m energy window). Multiple samples were counted from the tibia, femur, spine and pelvic bones; the total activity in the skeleton was estimated by assuming the whole skeleton consisted of equal proportions by weight of tibia, spine, femur and pelvis and that the skeletal mass was 10% of the body weight. The red marrow was sampled from the femur and the total marrow was assumed to be 2.2% of the total body weight. Similarly, blood volume was assumed to be 7% and the skeletal muscle 43% of the body weight. The whole liver and both kidneys were weighed and multiple samples from each were counted to measure the total activity in each organ.
In another series of experiments carried out as described above, localization of technetium from its tin-phosphonate complex was determined in the callous of three week-old fractures of tibia in albino rabbits, again in comparison with strontium-85. Comparative radioassay of technetium-99m administered as the pertechnetate was measured in the callous of tibial fractures in rabbits at one and four hours after administration.

[3] = 2 Hrs
[4] = cited from earlier work

tin-1-hydroxy-ethane-1,1-diphosphonate [99mTc-EHDP]
Blood, % dose / 1 % body weight ([1]; 1 Hr): 1.23 % dose / 1 % body weight | Bone(Avg), % dose / 1 % body weight ([1]; 1 Hr): 4.66 % dose / 1 % body weight | Femur, % dose / 1 % body weight ([1]; 1 Hr): 3.85 % dose / 1 % body weight | Kidneys, % Dose in Whole Organ ([1]; 1 Hr): 2.40 % dose | Kidneys, % dose / 1 % body weight ([1]; 1 Hr): 3.93 % dose / 1 % body weight | Liver, % Dose in Whole Organ ([1]; 1 Hr): 0.80 % dose | Liver, % dose / 1 % body weight ([1]; 1 Hr): 0.30 % dose / 1 % body weight | Marrow, % dose / 1 % body weight ([1]; 1 Hr): 0.36 % dose / 1 % body weight | Muscle, % dose / 1 % body weight ([1]; 1 Hr): 0.15 % dose / 1 % body weight | One Femur, % Dose in Whole Organ ([1]; 1 Hr): 0.82 % dose | Pelvis, % dose / 1 % body weight ([1]; 1 Hr): 7.15 % dose / 1 % body weight | Spine, % dose / 1 % body weight ([1]; 1 Hr): 5.87 % dose / 1 % body weight | Tibia, % dose / 1 % body weight ([1]; 1 Hr): 2.17 % dose / 1 % body weight | Urine, % Dose ([1]; 1 Hr): 30.9 % dose | Blood, % Dose in Whole Organ ([1]; 1 Hr): 8.61 % dose | Bone(Avg), % dose in whole organ ([1]; 1 Hr): 46.6 % dose | Marrow, % Dose in Whole Organ ([1]; 1 Hr): 0.70 % dose | Blood, % dose / 1 % body weight ([1]; 2 Hrs): 0.37 % dose / 1 % body weight | Bone(Avg), % dose / 1 % body weight ([1]; 2 Hrs): 4.82 % dose / 1 % body weight | Femur, % dose / 1 % body weight ([1]; 2 Hrs): 3.94 % dose / 1 % body weight | Kidneys, % Dose in Whole Organ ([1]; 2 Hrs): 1.22 % dose | Kidneys, % dose / 1 % body weight ([1]; 2 Hrs): 2.72 % dose / 1 % body weight | Liver, % Dose in Whole Organ ([1]; 2 Hrs): 0.42 % dose | Liver, % dose / 1 % body weight ([1]; 2 Hrs): 0.18 % dose / 1 % body weight | Marrow, % dose / 1 % body weight ([1]; 2 Hrs): 0.17 % dose / 1 % body weight | Muscle, % dose / 1 % body weight ([1]; 2 Hrs): 0.04 % dose / 1 % body weight | One Femur, % Dose in Whole Organ ([1]; 2 Hrs): 0.84 % dose | Pelvis, % dose / 1 % body weight ([1]; 2 Hrs): 7.40 % dose / 1 % body weight | Spine, % dose / 1 % body weight ([1]; 2 Hrs): 5.44 % dose / 1 % body weight | Tibia, % dose / 1 % body weight ([1]; 2 Hrs): 2.49 % dose / 1 % body weight | Urine, % Dose ([1]; 2 Hrs, 1 mg/kg): 51.8 % dose | Blood, % Dose in Whole Organ ([1]; 2 Hrs): 2.58 % dose | Bone(Avg), % dose in whole organ ([1]; 2 Hrs): 48.2 % dose | Marrow, % Dose in Whole Organ ([1]; 2 Hrs): 0.38 % dose | Blood, % dose / 1 % body weight ([1]; 4 Hrs): 0.13 % dose / 1 % body weight | Bone(Avg), % dose / 1 % body weight ([1]; 4 Hrs): 4.74 % dose / 1 % body weight | Femur, % dose / 1 % body weight ([1]; 4 Hrs): 3.86 % dose / 1 % body weight | Kidneys, % Dose in Whole Organ ([1]; 4 Hrs): 0.94 % dose | Kidneys, % dose / 1 % body weight ([1]; 4 Hrs): 1.95 % dose / 1 % body weight | Liver, % Dose in Whole Organ ([1]; 4 Hrs): 0.28 % dose | Liver, % dose / 1 % body weight ([1]; 4 Hrs): 0.11 % dose / 1 % body weight | Marrow, % dose / 1 % body weight ([1]; 4 Hrs): 0.38 % dose / 1 % body weight | Muscle, % dose / 1 % body weight ([1]; 4 Hrs): 0.03 % dose / 1 % body weight | One Femur, % Dose in Whole Organ ([1]; 4 Hrs): 0.81 % dose | Pelvis, % dose / 1 % body weight ([1]; 4 Hrs): 7.41 % dose / 1 % body weight | Spine, % dose / 1 % body weight ([1]; 4 Hrs): 5.52 % dose / 1 % body weight | Tibia, % dose / 1 % body weight ([1]; 4 Hrs): 2.16 % dose / 1 % body weight | Urine, % Dose ([1]; 4 Hrs, 1 mg/kg): 53.4 % dose | Blood, % Dose in Whole Organ ([1]; 4 Hrs): 0.89 % dose | Bone(Avg), % dose in whole organ ([1]; 4 Hrs): 47.4 % dose | Marrow, % Dose in Whole Organ ([1]; 4 Hrs): 0.83 % dose | Blood, % dose / 1 % body weight ([1]; 24 Hrs): 0.07 % dose / 1 % body weight | Bone(Avg), % dose / 1 % body weight ([1]; 24 Hrs): 4.14 % dose / 1 % body weight | Femur, % dose / 1 % body weight ([1]; 24 Hrs): 3.42 % dose / 1 % body weight | Kidneys, % Dose in Whole Organ ([1]; 24 Hrs): 0.63 % dose | Kidneys, % dose / 1 % body weight ([1]; 24 Hrs): 1.29 % dose / 1 % body weight | Liver, % Dose in Whole Organ ([1]; 24 Hrs): 0.43 % dose | Liver, % dose / 1 % body weight ([1]; 24 Hrs): 0.28 % dose / 1 % body weight | Marrow, % dose / 1 % body weight ([1]; 24 Hrs): 0.19 % dose / 1 % body weight | Muscle, % dose / 1 % body weight ([1]; 24 Hrs): 0.02 % dose / 1 % body weight | One Femur, % Dose in Whole Organ ([1]; 24 Hrs): 0.76 % dose | Pelvis, % dose / 1 % body weight ([1]; 24 Hrs): 5.70 % dose / 1 % body weight | Spine, % dose / 1 % body weight ([1]; 24 Hrs): 5.30 % dose / 1 % body weight | Tibia, % dose / 1 % body weight ([1]; 24 Hrs): 2.10 % dose / 1 % body weight | Blood, % Dose in Whole Organ ([1]; 24 Hrs): 0.49 % dose | Bone(Avg), % dose in whole organ ([1]; 24 Hrs): 41.5 % dose | Marrow, % Dose in Whole Organ ([1]; 24 Hrs): 0.42 % dose | skeletal concentrations compared with 85Sr ([1]; rabbits): similar | soft tissue and blood concentrations compared with 85Sr ([1]; various times, rabbits): much lower than those for 85 Sr | Callus, % dose / 1 % body weight ([2]; 1 Hr): 24.7 % dose / 1 % body weight | Callus, % dose / 1 % body weight ([2]; 4 Hrs): 28.9 % dose / 1 % body weight | concentration in the callous compared with 85Sr ([2]; rabbits): somewhat lower than that of 85 Sr | Blood, % Dose in Whole Organ ([3]; EHDP 0.01 mg/kg): 0.99 % Dose | Kidneys, % Dose in Whole Organ ([3]; EHDP 0.01 mg/kg): 0.81 % Dose | Liver, % Dose in Whole Organ ([3]; EHDP 0.01 mg/kg): 0.53 % Dose | Marrow, % Dose in Whole Organ ([3]; EHDP 0.01 mg/kg): 0.34 % Dose | Muscle, % Dose in Whole Organ ([3]; EHDP 0.01 mg/kg): 0.78 % Dose | One Femur, % Dose in Whole Organ ([3]; EHDP 0.01 mg/kg): 2.20 % Dose | One Tibia, % Dose in Whole Organ ([3]; EHDP 0.01 mg/kg): 2.05 % Dose | Urine, % Dose ([3]; EHDP 0.01 mg/kg): 46.7 % Dose | Blood, % Dose in Whole Organ ([3]; EHDP 0.05 mg/kg): 1.35 % Dose | Kidneys, % Dose in Whole Organ ([3]; EHDP 0.05 mg/kg): 2.9 % Dose | Liver, % Dose in Whole Organ ([3]; EHDP 0.05 mg/kg): 1.61 % Dose | Marrow, % Dose in Whole Organ ([3]; EHDP 0.05 mg/kg): 0.78 % Dose | Muscle, % Dose in Whole Organ ([3]; EHDP 0.05 mg/kg): 1.33 % Dose | One Femur, % Dose in Whole Organ ([3]; EHDP 0.05 mg/kg): 2.44 % Dose | One Tibia, % Dose in Whole Organ ([3]; EHDP 0.05 mg/kg): 2.22 % Dose | Urine, % Dose ([3]; EHDP 0.05 mg/kg): 37.3 % Dose | Blood, % Dose in Whole Organ ([3]; EHDP 0.1 mg/kg): 1.02 % Dose | Kidneys, % Dose in Whole Organ ([3]; EHDP 0.1 mg/kg): 0.63 % Dose | Liver, % Dose in Whole Organ ([3]; EHDP 0.1 mg/kg): 0.19 % Dose | Marrow, % Dose in Whole Organ ([3]; EHDP 0.1 mg/kg): 0.20 % Dose | Muscle, % Dose in Whole Organ ([3]; EHDP 0.1 mg/kg): 0.98 % Dose | One Femur, % Dose in Whole Organ ([3]; EHDP 0.1 mg/kg): 2.82 % Dose | One Tibia, % Dose in Whole Organ ([3]; EHDP 0.1 mg/kg): 2.44 % Dose | Urine, % Dose ([3]; EHDP 0.1 mg/kg): 30.4 % Dose | Blood, % Dose in Whole Organ ([3]; EHDP 0.5 mg/kg): 1.503 % Dose | Kidneys, % Dose in Whole Organ ([3]; EHDP 0.5 mg/kg): 1.10 % Dose | Liver, % Dose in Whole Organ ([3]; EHDP 0.5 mg/kg): 0.260 % Dose | Marrow, % Dose in Whole Organ ([3]; EHDP 0.5 mg/kg): 0.19 % Dose | Muscle, % Dose in Whole Organ ([3]; EHDP 0.5 mg/kg): 1.22 % Dose | One Femur, % Dose in Whole Organ ([3]; EHDP 0.5 mg/kg): 1.75 % Dose | One Tibia, % Dose in Whole Organ ([3]; EHDP 0.5 mg/kg): 1.43 % Dose | Urine, % Dose ([3]; EHDP 0.5 mg/kg): 55.37 % Dose

technetium-99m
external photon yield ([4]; gamma emission of 140 KeV): 90% | half-life of radionuclide ([4]; radioactive decay): 6 h
